Source: patent publication US12522593B2, “Azacycloalkyl carbonyl cyclic amine compound” (Alivexis, Inc., priority 2022, dated 2026)
Structures can show the parent of a compound that is named as a salt.

Experiments:
human recombinant CTSC = human recombinant CTSC (Homo sapiens (Human), UniProt P53634); assay: CTSC inhibition assay (in vitro), fluorescent substrate GF-AFC; assay type: biochemical; settings: 30 μmol/L GF-AFC, pH 5.0, 25° C.
Experimental: 1. CTSC Inhibition Assay (In Vitro)
A test specimen was evaluated by a CTSC inhibition assay using a fluorescent substrate GF-AFC (Gly-Phe-7-Amino-4-trifluoromethylcoumarin, MP Biomedical, 03AFC03325). Since the GF-AFC is converted by CTSC to aminotrifluoromethylcoumarin having a specific fluorescence wavelength and the produced amount is proportional to CTSC activity, quantitative analysis was performed by measuring a fluorescence intensity with a plate reader. CTSC inhibition assay for each compound was performed using a polystyrene-made non-adhesive surface-treated black 384 well plate under the following conditions.
A human recombinant CTSC (R&D systems, 1071-CY) was dissolved in a CTSC active cocktail (20 ng/mL of human recombinant cathepsin L (R&D systems, 952-CY, 25 mmol/L MES/NaOH (pH: 6.0), 5 mmol/L dithiothreitol (DTT)) so as to be 100 ng/mL and incubated at 18° C. for 30 minutes. The solution was diluted with a CTSC assay buffer (50 mmol/L MES/NaOH (pH: 5.0), 50 mmol/L NaCl, 0.001% Triton X-100, mmol/L DTT) so as to be 2 ng/mL in a case of performing CTSC inhibition assay.
The test specimen was dissolved in dimethylsulfoxide (DMSO) at 10 mmol/L to prepare a stock solution. In a case where a solution in which the stock solution was diluted 15-fold with DMSO was used as the maximum evaluation concentration (0.667 mmol/L), 5-fold dilution was repeated in DMSO from the solution to prepare a serially diluted solution. 248.8 μL of the CTSC assay buffer was added to 1.12 μL of the serially diluted sample prepared in the DMSO to prepare a solution of a CTSC inhibition assay compound.
The final composition of the CTSC inhibition assay mixture was 0.66 ng/mL activated CTSC, 50 mmol/L MES/NaOH (pH: 5.0), 50 mmol/L NaCl, 0.001% Triton X-100, 5 mmol/L DTT, 30 μmol/L GF-AFC, and 0.15% DMSO, and the procedure was as follows. That is, 4 μL of the compound solution and 4 μL of the 2 ng/mL activated CTSC solution were mixed with each other in a 384 well plate and incubated at 25° C. for 30 minutes. Thereafter, 4 μL of the GF-AFC solution dissolved in the CTSC assay buffer was added to the mixture so as to be 90 μmol/L. After mixing to be uniform, a fluorescence emission intensity at 505 nm in a case of being excited at 390 nm after incubating at 25° C. for 1 hour was measured with a plate reader. A 4-parameter regression analysis was performed with GraphPad Prism (manufactured by GraphPad Software) from a plot of the fluorescence intensity at 505 nm and the sample concentration, and an IC50 value was calculated.
Results of test compounds of Formula (I) are shown in Table 1 as IC50 (nM) values for which 50% inhibition concentration is calculated based on CTSC inhibition (%). In the table, Ex indicates an example number.

CTSC in U937 cells = CTSC in U937 cells (Homo sapiens (Human), UniProt P53634); assay: Intracellular CTSC inhibition assay (in vitro), LLOMe-induced cell death in U937 cells; assay type: cell-based; settings: 3 hours culture, CellTiter-Glo
Sequence of CTSC in U937 cells (P53634 25-463): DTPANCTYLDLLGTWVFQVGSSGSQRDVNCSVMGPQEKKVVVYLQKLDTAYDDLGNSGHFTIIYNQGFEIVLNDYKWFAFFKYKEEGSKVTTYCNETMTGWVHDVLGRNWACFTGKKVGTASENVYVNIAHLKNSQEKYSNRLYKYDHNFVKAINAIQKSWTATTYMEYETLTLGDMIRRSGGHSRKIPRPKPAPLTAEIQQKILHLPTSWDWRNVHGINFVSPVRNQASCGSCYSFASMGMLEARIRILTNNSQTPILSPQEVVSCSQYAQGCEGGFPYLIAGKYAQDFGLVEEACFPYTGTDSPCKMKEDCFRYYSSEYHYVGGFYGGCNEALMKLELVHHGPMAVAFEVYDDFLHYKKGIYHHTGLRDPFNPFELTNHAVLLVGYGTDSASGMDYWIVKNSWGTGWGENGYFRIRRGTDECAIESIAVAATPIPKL
Experimental: 2. Intracellular CTSC Inhibition Assay (In Vitro)
A test specimen was evaluated by a degree of cell death in a case where a substrate LLOMe (L-Leucyl-L-Leucine methyl ester, hydrobromide salt, Sigma, 555045152) was added to U937 cells. The LLOMe is taken up into the cells by endocytosis and cleaved by CTSC. A product thereof induces lysosomal damage in cells and causes cell death in leukocytes and the like. Therefore, since the degree of cell death correlates with an amount of degradation of LLOMe, that is, with CTSC activity, by quantitatively analyzing the cell death, CTSC inhibitory activity of the test specimen in the cell was determined. CTSC inhibition assay was performed using a polystyrene-made white 384 well plate.
As the test specimen, a stock solution dissolved in DMSO was prepared so as to be 0.2 mmol/L, and in a case where a solution in which the stock solution was diluted 50-fold with a RPMI-1640 medium including 10% FBS was used as the maximum evaluation concentration (4000 nmol/L), a serially diluted solution was prepared by diluting the solution 3-fold with the medium. Thereafter, a 4-fold concentrated test specimen solution with the target final concentration was prepared.
U937 cells were cultured in a RPMI-1640 medium including 10% FBS, and diluted to prepare 90,000 cells/mL of cell suspension on the day of assay. 10 μL of the cell suspension was seeded per well. Next, 10 μL of the test specimen solution having a concentration 4 times the target final concentration was added thereto, and the mixture was allowed to stand for 30 minutes. Thereafter, 20 μL of a 300 μmol/L LLOMe solution dissolved in a RPMI-1640 medium including 10% FBS was added thereto, and the cells were cultured for 3 hours. After completion of the culture, 40 μL of CellTiter-Glo (registered trademark) reagent (Promega, G7570) was added to each well and mixed. After 15 minutes, 20 μL of the reaction solution in each well was transferred to a white 384 well plate, and a chemiluminescence intensity was measured with a plate reader. A 4-parameter regression analysis was performed with GraphPad Prism (manufactured by GraphPad Software) from a plot of the luminescence intensity and the sample concentration, and an IC50 value was calculated.
Results of test compounds of Formula (1) are shown in Table 2 as IC50 (nM) values for which 50% inhibition concentration is calculated based on CTSC inhibition (%). In the table, Ex indicates an example number.

Sequence of human recombinant CTSC (P53634 25-134): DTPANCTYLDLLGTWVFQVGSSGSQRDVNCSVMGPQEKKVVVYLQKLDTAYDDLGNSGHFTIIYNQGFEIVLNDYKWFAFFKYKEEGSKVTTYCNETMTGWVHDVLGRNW
Sequence of human recombinant CTSC (P53634 231-394): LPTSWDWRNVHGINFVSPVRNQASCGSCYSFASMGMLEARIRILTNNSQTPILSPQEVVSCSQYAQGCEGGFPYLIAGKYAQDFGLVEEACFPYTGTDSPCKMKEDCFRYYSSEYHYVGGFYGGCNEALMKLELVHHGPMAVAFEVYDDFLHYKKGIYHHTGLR
Sequence of human recombinant CTSC (P53634 395-463): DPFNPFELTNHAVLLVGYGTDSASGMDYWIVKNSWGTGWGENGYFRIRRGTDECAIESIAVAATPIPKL

| SMILES | IC50 (human recombinant CTSC) [nM] | IC50 (CTSC in U937 cells) [nM] |
| --- | --- | --- |
| O=C([C@@H]1C[C@@H](O)C2(CCC2)CN1)N1CCC(C(=O)N2CC[C@H](C(F)(F)F)C2)(C(F)(F)F)CC1 [Example 55] | 4.4 | 3.79 |
| CC1(C)CN[C@H](C(=O)N2CCC(c3nnn(-c4ccc(F)c(F)c4)n3)CC2)C[C@H]1O [Example 103] | 2.41 | 0.5 |
| C[C@]1(F)C[C@H](c2nc(C3(C(F)(F)F)CCN(C(=O)[C@@H]4C[C@@H](O)C5(CCC5)CN4)CC3)no2)C1 [Example 49] | 4.43 | 0.35 |
| O=C([C@@H]1CC[C@@]2(CCO2)CN1)N1CCC(c2noc(C3CC(F)(F)C3)n2)(C(F)(F)F)CC1 [Example 40] | 19.6 | 37.9 |
| CC(C)C1(c2noc(C3CCC3)n2)CCN(C(=O)[C@@H]2C[C@@H](O)C3(CCC3)CN2)CC1 [Example 58] | 2.55 | 0.56 |
| Cc1cnn(C2(c3noc(C4CC(F)(F)C4)n3)CCN(C(=O)[C@@H]3C[C@@H](O)C4(CCC4)CN3)CC2)c1 [Example 71] | 3.73 | 5.63 |
| O=C([C@@H]1C[C@@H](O)C2(CCC2)CN1)N1CCC(c2cnc(N3CCC(F)(F)CC3)s2)CC1 [Example 92] | 2.76 | 3.62 |
| O=C([C@@H]1CC[C@@]2(CCO2)CN1)N1CCC(c2nc(C3CC(F)(F)C3)no2)(C(F)(F)F)CC1 [Example 10] | 39.3 | 162 |
| CC(C)C1(c2nc(C3CC(F)(F)C3)no2)CN(C(=O)[C@@H]2C[C@@H](O)C3(CCC3)CN2)C1 [Example 18] | 3.12 | 2.33 |
| O=C([C@@H]1CC[C@@]2(CCO2)CN1)N1CCC(c2nc(C3CCC(F)(F)CC3)no2)(C(F)(F)F)CC1 [Example 11] | 7.73 | 11.5 |
| CC(C)C1(c2noc(C3CCC(F)(F)CC3)n2)CCN(C(=O)C2CCC(C)(C)CN2)CC1 (centres unmarked) [Example 41] | 18.5 | 6.95 |
| Cc1ccc(C2(C(=O)NCC3CCC(F)(F)CC3)CCN(C(=O)[C@@H]3CC[C@@]4(CCO4)CN3)CC2)cc1 [Example 84] | 1.25 | 1.92 |
| CC1(C)CN[C@H](C(=O)N2CCC(c3noc(C4CCC(F)(F)CC4)n3)(C3CC3)CC2)C[C@H]1O [Example 80, (4-Cyclopropyl-4-(5-(4,4-Difluorocyclohexyl)-1,2,4-oxadiazol-3-yl)piperidin-1-yl)((2S,4R)-4-hydroxy-5,5-dimethylpiperidin-2-yl)methanone] | 1.86 | 0.65 |
| CC(C)C1(c2nc(C3CCC(F)(F)CC3)no2)CN(C(=O)[C@@H]2CC[C@@]3(CCO3)CN2)C1 [Example 21] | 2.51 | 4.78 |
| CC(C)C1(c2noc(C3CCC(F)(F)CC3)n2)CCN(C(=O)[C@@H]2C[C@@H](O)CCN2)CC1 [Example 34] | > 1000 | > 333 |
| O=C([C@@H]1C[C@@H](O)C2(CCC2)CN1)N1CCC(c2nc(C3CC(F)(F)C3)no2)(N2CCOCC2)CC1 [Example 65] | 4.15 | 30.1 |

| SMILES | IC50 (human recombinant CTSC) [nM] | IC50 (CTSC in U937 cells) [nM] |
| --- | --- | --- |
| O=C([C@@H]1C[C@@H](O)C2(CCC2)CN1)N1CCC(c2ccnc(N3CCC(F)(F)CC3)c2)CC1 [Example 91] | 0.84 | 0.54 |
| O=C([C@@H]1C[C@@H](O)C2(CCC2)CN1)N1CCC(C(=O)N2CCO[C@H](C(F)(F)F)C2)(C(F)(F)F)CC1 [Example 39] | 13.3 | 7.18 |
| CN(CC1CCC(F)(F)CC1)C(=O)C1(C(F)(F)F)CCN(C(=O)[C@@H]2C[C@@H](O)C3(CCC3)CN2)CC1 [Example 8] | 1.6 | 1.62 |
| CC1(C)CN[C@H](C(=O)N2CCC(c3nnn(-c4ccc(F)cc4)n3)CC2)C[C@H]1O [Example 90, (4-(2-(4-Fluorophenyl)-2H-tetrazol-5-yl)piperidin-1-yl)((2S,4R)-4-hydroxy-5,5-dimethylpiperidin-2-yl)methanone] | 4.34 | 0.54 |
| O=C([C@@H]1CC[C@@]2(CCO2)CN1)N1CCC(c2noc(C3CCC(F)(F)CC3)n2)(C(F)(F)F)CC1 [Example 73] | 3.28 | 4.05 |
| CC(C)C1(c2nnc(C3CCC(F)(F)CC3)o2)CN(C(=O)[C@@H]2C[C@@H](O)C3(CCC3)CN2)C1 [Example 16, (3-(5-(4,4-difluorocyclohexyl)-1,3,4-oxadiazol-2-yl)-3-isopropylazetidine-1-yl)((7S,9R)-9-hydroxy-6-azaspiro[3.5]nonan-7-yl)methanone trifluoroacetate] | 3.17 | 19.2 |
| CC(=O)N(C)C1(c2nc(C3CC(F)(F)C3)no2)CCN(C(=O)[C@@H]2C[C@@H](O)C3(CCC3)CN2)CC1 [Example 77] | 3.79 | > 333 |
| O=C([C@@H]1C[C@@H](O)C2(CCC2)CN1)N1CCC(c2nnn(-c3ccc(F)cc3)n2)CC1 [Example 89, (4-(2-(4-Fluorophenyl)-2H-tetrazol-5-yl)piperidin-1-yl)((7S,9R)-9-hydroxy-6-azaspiro[3.5]nonan-7-yl)methanone] | 1.45 | 0.6 |
| CC1CC[C@@H](C(=O)N2CCC(c3noc(C4CCC(F)(F)CC4)n3)(C(C)C)CC2)NC1 (some centres unmarked) [Example 43] | > 100 | 57.3 |
| CN(C)C1(c2nc(C3CC(F)(F)C3)no2)CCN(C(=O)[C@@H]2C[C@@H](O)C3(CCC3)CN2)CC1 [Example 75] | 2.21 | 5.01 |
| O=C([C@@H]1C[C@@H](O)C2(CCC2)CN1)N1CCC(c2noc(C3CC(F)(F)C3)n2)(C(F)(F)F)CC1 [Example 3, (4-(5-(3,3-Difluorocyclobutyl)-1,2,4-oxadiazol-3-yl)-4-(trifluoromethyl)piperidin-1-yl)((7S,9R)-9-hydroxy-6-azaspiro[3.5]nonan-7-yl)methanone] | 1.52 | 0.49 |
| O=C([C@@H]1C[C@@H](O)C2(CCC2)CN1)N1CCC(c2noc(C3CCOCC3)n2)(C(F)(F)F)CC1 [Example 61] | 5.72 | 1.75 |
| CC(C)C1(c2nc(C3CCC(F)(F)CC3)no2)CN(C(=O)[C@@H]2C[C@@H](O)C3(CCC3)CN2)C1 [Example 19] | 1.23 | 0.98 |
| CC(C)C1(c2noc(C3CCC(F)(F)CC3)n2)CN(C(=O)[C@@H]2C[C@@H](O)C3(CCC3)CN2)C1 [Example 6] | 1.19 | 1.06 |
| O=C([C@@H]1C[C@@H](O)C2(CCC2)CN1)N1CCC(c2noc(C3CCC(F)(F)CC3)n2)(C2CC2)CC1 [Example 74] | 0.87 | 0.38 |
